Tests used:
[1] = system: Hair follicles; experiment: Hair follicle culture; assay type: cell-based; details: rat whisker hair follicles, 50 μg/ml, 20th day after treatment, vs ddH2O
Description: Hair follicles were isolated from 4 week-old rat whiskers and were maintained in Dulbecco's Modified Eagle Medium supplemented with 10% fetal bovine serum, 1% (v/v) antibiotic, and 250 ng/ml fungizone in 5% CO2 at 37° C. for 24 hours. Then, the hair follicles were treated with ddH2O or Mucinhair peptide (50 μg/ml). Medium was changed every 6 days and the hair shaft lengths were measured under a phase contrast microscope on the 20th day after the treatment.

[2] = system: nude mice; experiment: Hair patch assay for nude mice; assay type: in vivo; details: subcutaneous injection of epidermal and dermal cells with 50 μg/ml peptide, 30 days
Description: Skin was peeled off from 1 day-old C57BL/6 mouse and its epidermis was separated from the dermis by 10 mg/ml Dispase digestion at 4° C. for 2 days. Epidermis and dermis were cut into small pieces and digested at 37° C. in 0.05% Trypsin-EDTA for 15 minutes and then 20 mg/ml collagenase for 60 minutes. Epidermal cells and dermal cells were collected through filtration with 70 μm strainers and low-speed centrifugation.
2×10^7 epidermal cells and 1×10^8 dermal cells were subcutaneously injected into nude mice with ddH2O or Mucinhair peptide (50 μg/ml). After 30 days, mice were sacrificed and hair patch was excised and photographed. The excised skins were paraffin-embedded and tissues were sectioned and stained with hemmtoxylin and eosin (H&E).

[3] = system: dermal papilla cells; experiment: Cell proliferation assay (MTT); assay type: cell-based; details: rat dermal papilla cells, 50 μg/ml, quotient of MTT value vs 0 hour
Description: Dermal papilla cells were isolated from rat whiskers and cells were cultured in Dulbecco's modified Eagle's medium (Thermo Scientific, Barrington, Ill., USA) with 10% fetal bovine serum (Gibco, Grand Island, N.Y., USA) and penicillin/streptomycin (100 IU/[…]) in a humidified atmosphere containing 5% CO2 at 37° C. Dermal papilla cells at the 3rd passage were used for all of the following experiments.
2×10^3 dermal papilla cells were seeded in 96-well plates and incubated with Mucinhair peptide (50 μg/ml) or ddH2O for the indicated period. 10 μL of 5 mg/mL 3-(4,5-dimethyl-2-thiazolyl)-2,5-diphenyl-2H-tetrazolium bromide solution (MTT; Sigma) was added to each well and incubated at 37° C. for 4 hours. After which, 100 μL of 10% SDS in 0.01N HCl was added to dissolve the MTT formazan crystals. The resultant optical density was measured spectrophotometrically at dual wavelengths, 550 and 630 nm. The MTT value was obtained by subtracting the OD630 value from the OD550 value.
The term “proliferation rate” used herein is defined as a quotient of the MTT value calculated from cells treated for an indicated period and that calculated from cells treated for 0 hour.

In the case of NTSDPQKENRNTG [Mucinhair peptide], the hair shaft lengths [1] is reported as “longer than those grown with ddH2O treatment”, the “hair follicles in hypodermis (H&E)” value [2] is reported as “has neogenic hair follicles” and the region with hairs ([2]; vs ddH2O) is reported as “larger than that injected with ddH2O”. It also gave a proliferation rate ([3]; treated for 48 hours) of 2.26±0.23 and a proliferation rate ([3]; treated for 96 hours) of 3.31±0.21.
